Entries after “also recorded” stand apart in the source; their conditions may differ.
Tests used:
[1] = system: model of OA in rabbits; details: Inflamm Res 44, Suppl 2, S117-118 (1995); cited from earlier work
[2] = system: partial meniscectomy model of osteoarthritis rabbits; test: partial meniscectomy model of osteoarthritis in rabbits; assay type: in vivo, rabbit
Experimental: The effect of the compound on osteoarthritis invented in this study was confirmed by the experiments of a partial meniscectomy model in rabbits.
Female rabbits (Kbs: NZW(Healthy)) were bred for one week before the experiments. The animals were subjected to OA model according to following method.
Each animal was anesthetized with a subcutaneous injection of xylazine (0.05 ml/kg) and an intravenous injection of sodium pentobarbital (20 mg/kg). Right hind knee was shaved, and the width of the knee was measured with the micrometer caliper. It was disinfected with iodine solution. If required local anesthesia was performed with lidocaine hydrochloride.
The skin and articular capsule around right knee were incised at right angle to patellar ligament, the fibular collateral and sesamoid ligament were transected with blades. Adrenaline solution was dropped for the arrest of hemorrhage. The lateral meniscus was partially removed. After washing the operated area with saline solution, the synovium and articular capsule were stitched together. Then muscular coat and skin were put in a suture. […]
After anesthesia with sodium pentobarbital (40 mg/kg), the hind knee was shaved and the width of them was measured with a micrometer caliper. […] After masking, the area of erosion was measured. […]

| Compound | effect on a model of OA [1] | erosion area of femur ([2]; 10, 30, 100 or 300 mg/kg twice a day, oral, 7 days after meniscectomy, FIG. 1) | efficacy in the partial meniscectomy OA model ([2]; rabbits, oral twice a day) |
| --- | --- | --- | --- |
| COc1ccc(S(=O)(=O)N(Cc2cccnc2)[C@@H](C(=O)NO)C(C)C)cc1.Cl [CGS-27023A, 2(R)-[N-(4-methoxyphenylsulfonyl)-N-(3-pyridylmethyl)amino]-3-methylbutanohydroxamic acid hydrochloride] | effected on a model of OA in rabbits |  |  |
| CCOCOC[C@H](C[C@H](C)C(=O)NO)NC(=O)c1ccc(Oc2ccccc2)cc1 [compound of formula (I), N-hydroxy-5-ethoxymethyloxy-2(S)-methyl-4(S)-(4-phenoxybenzoyl)aminopentanamide] |  | decreasing effect | shows an efficiency; also recorded: high-effectivity |

— patent US20030114530A1, “Remedies for degenerative arthritis” (priority 2000, published 2003)
